Assays:
blackgrass = experiment: Test B pre/postemergence blackgrass; format: in vivo, Alopecurus myosuroides
Method in brief: (§1)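 Herbicidal effect was estimated by eye on a ten-point control scale after plants spent twelve to sixteen days in a greenhouse following soil or foliar treatment. Foliar sprays targeted plants at one to four leaves; all doses were formulated in a non-phytotoxic solvent with surfactant.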

bamyardgrass = experiment: Test B flood test barnyardgrass; format: in vivo, Echinochloa crus-galli
Method in brief: (§2)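 Each value is a visual injury score relative to controls, with 10 meaning complete control and 0 no effect. Evaluation took place twelve to sixteen days after the 2-leaf-stage plants were treated and kept in the greenhouse.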

pigweed = experiment: Test B pre/postemergence pigweed; format: in vivo, Amaranthus retroflexus
Method in brief: as §1

surinam grass = experiment: Test B pre/postemergence surinam grass; format: in vivo, Brachiaria decumbens
Method in brief: as §1

rice = experiment: Test B flood test rice; format: in vivo, Oryza sativa
Method in brief: as §2

smallflower flatsedge = experiment: Test B flood test smallflower flatsedge; format: in vivo, Cyperus difformis
Method in brief: as §2

morningglory = experiment: Test B pre/postemergence morningglory; format: in vivo, Ipomoea hederacea
Method in brief: as §1

sugar beet = experiment: Test B pre/postemergence sugar beet; format: in vivo, Beta vulgaris
Method in brief: as §1

bedstraw = experiment: Test B pre/postemergence bedstraw; format: in vivo, Galium aparine
Method in brief: as §1

crabgrass = experiment: Test B pre/postemergence crabgrass; format: in vivo, Digitaria sanguinalis
Method in brief: as §1

velvetleaf = experiment: Test B pre/postemergence velvetleaf; format: in vivo, Abutilon theophrasti
Method in brief: as §1

giant foxtail = experiment: Test B pre/postemergence giant foxtail; format: in vivo, Setaria faberii
Method in brief: as §1

wild oat = experiment: Test B pre/postemergence wild oat; format: in vivo, Avena fatua
Method in brief: as §1

cocklebur = experiment: Test B pre/postemergence cocklebur; format: in vivo, Xanthium strumarium
Method in brief: as §1

corn = experiment: Test B pre/postemergence corn; format: in vivo, Zea mays
Method in brief: as §1

rape = experiment: Test B pre/postemergence rape; format: in vivo, Brassica napus
Method in brief: as §1

[1] = Postemergence, Rate 62 g/ha, scale 0 to 10, 0 is no effect, 10 is complete control
[2] = Postemergence, Rate 125 g/ha, scale of 0 to 10 where 0 is no effect and 10 is complete control
[3] = Postemergence, Rate 250 g/ha, scale of 0 to 10, 0 is no effect, 10 is complete control
[4] = Postemergence, Rate 500 g/ha, scale of 0 to 10 where 0 is no effect and 10 is complete control
[5] = Preemergence, Rate 62 g/ha, scale 0 to 10 (0 no effect, 10 complete control)
[6] = Preemergence, Rate 125 g/ha, scale of 0 to 10 where 0 is no effect and 10 is complete control
[7] = Preemergence, Rate 250 g/ha, scale 0 to 10 (0 no effect, 10 complete control)
[8] = Preemergence, Rate 500 g/ha, scale of 0 to 10 where 0 is no effect and 10 is complete control
[9] = Rate 62 g/ha, flood test species, Pre-emergence, visual evaluation after twelve to sixteen days
[10] = Rate 125 g/ha, under heading Pre-emergence, flood test species, visual evaluation after twelve to sixteen days
[11] = Rate 250 g/ha, Pre-emergence (flood test species), scale 0 to 10, 0 is no effect, 10 is complete control
[12] = Rate 500 g/ha, Pre-emergence section of Table B, 0 to 10 scale (0 no effect, 10 complete control)

In the case of `CCOC(Cn1c(=O)on(C(=O)N(c2ccc(F)cc2)C(C)C)c1=O)OCC` [Compound 629], the “Plant response rating, Blackgrass” value (blackgrass; [1]) is reported as 3, the “Plant response rating, Blackgrass” value (blackgrass; [2]) is reported as 8 and the “Blackgrass plant response rating” value (blackgrass; [3]) is reported as 8. The “Plant response rating, Blackgrass” value (blackgrass; [4]) was 8, the “Blackgrass plant response rating” value (blackgrass; [5]) was 4 and the “Blackgrass plant response rating” value (blackgrass; [6]) was 8. For the same molecule, the “Plant response rating, Blackgrass” value (blackgrass; [7]) was 8, the “Plant response rating, Blackgrass” value (blackgrass; [8]) was 10 and the “Plant response rating, Barnyardgrass (0 to 10 scale, 0 is no effect, 10 is complete control)” value (bamyardgrass; [9]) was 0. For the same molecule, the “Barnyardgrass plant response rating (0 to 10 scale, 0 is no effect, 10 is complete control)” value (bamyardgrass; [10]) was 0, the “Barnyardgrass plant response rating” value (bamyardgrass; [11]) was 0 and the “Barnyardgrass plant response rating” value (bamyardgrass; [12]) was 0. For the same molecule, the “Plant response rating, Redroot pigweed” value (pigweed; [1]) was 0, the “Redroot pigweed plant response rating” value (pigweed; [3]) was 2 and the “Redroot pigweed plant response rating” value (pigweed; [5]) was 2. The “Redroot pigweed plant response rating” value (pigweed; [6]) was 10, the “Plant response rating, Redroot pigweed” value (pigweed; [7]) was 10 and the “Plant response rating, Redroot pigweed” value (pigweed; [8]) was 10. The “Plant response rating, B. signalgrass” value (surinam grass; [1]) was 0, the “Plant response rating, B. signalgrass” value (surinam grass; [2]) was 1 and the “B. signalgrass plant response rating” value (surinam grass; [3]) was 3. For the same molecule, the “Plant response rating, B. signalgrass” value (surinam grass; [4]) was 7, the “B. signalgrass plant response rating” value (surinam grass; [5]) was 0 and the “B. signalgrass plant response rating” value (surinam grass; [6]) was 2. For the same molecule, the “Plant response rating, B. signalgrass” value (surinam grass; [7]) was 5, the “Plant response rating, B. signalgrass” value (surinam grass; [8]) was 8 and the “Plant response rating, Rice (0 to 10 scale, 0 is no effect, 10 is complete control)” value (rice; [9]) was 0. The “Rice plant response rating (0 to 10 scale, 0 is no effect, 10 is complete control)” value (rice; [10]) was 0, the “Rice plant response rating” value (rice; [11]) was 0 and the “Rice plant response rating” value (rice; [12]) was 0. For the same molecule, the “Plant response rating, S. Flatsedge (0 to 10 scale, 0 is no effect, 10 is complete control)” value (smallflower flatsedge; [9]) was 0, the “S. Flatsedge plant response rating (0 to 10 scale, 0 is no effect, 10 is complete control)” value (smallflower flatsedge; [10]) was 0 and the “S. Flatsedge plant response rating” value (smallflower flatsedge; [11]) was 0. For the same molecule, the “S. Flatsedge plant response rating” value (smallflower flatsedge; [12]) was 0, the “Plant response rating, Morningglory” value (morningglory; [1]) was 2 and the “Plant response rating, Morningglory” value (morningglory; [2]) was 2. The “Morningglory plant response rating” value (morningglory; [3]) was 3, the “Plant response rating, Morningglory” value (morningglory; [4]) was 3 and the “Morningglory plant response rating” value (morningglory; [5]) was 0. For the same molecule, the “Morningglory plant response rating” value (morningglory; [6]) was 0, the “Plant response rating, Morningglory” value (morningglory; [7]) was 0 and the “Plant response rating, Morningglory” value (morningglory; [8]) was 4. The “Plant response rating, Sugarbeets” value (sugar beet; [1]) was 0, the “Plant response rating, Sugarbeets” value (sugar beet; [2]) was 0 and the “Sugarbeets plant response rating” value (sugar beet; [3]) was 0. The “Sugarbeets plant response rating” value (sugar beet; [5]) was 2, the “Plant response rating, Sugarbeets” value (sugar beet; [7]) was 3 and the “Plant response rating, Sugarbeets” value (sugar beet; [8]) was 7. The “Plant response rating, Bedstraw” value (bedstraw; [1]) was 3, the “Plant response rating, Bedstraw” value (bedstraw; [2]) was 5 and the “Bedstraw plant response rating” value (bedstraw; [3]) was 8. The “Bedstraw plant response rating” value (bedstraw; [5]) was 0, the “Bedstraw plant response rating” value (bedstraw; [6]) was 0 and the “Plant response rating, Bedstraw” value (bedstraw; [7]) was 3. For the same molecule, the “Plant response rating, Bedstraw” value (bedstraw; [8]) was 8, the “Plant response rating, Crabgrass” value (crabgrass; [1]) was 1 and the “Plant response rating, Crabgrass” value (crabgrass; [2]) was 3. The “Crabgrass plant response rating” value (crabgrass; [3]) was 8, the “Plant response rating, Crabgrass” value (crabgrass; [4]) was 9 and the “Crabgrass plant response rating” value (crabgrass; [5]) was 7. For the same molecule, the “Crabgrass plant response rating” value (crabgrass; [6]) was 9, the “Plant response rating, Crabgrass” value (crabgrass; [7]) was 9 and the “Plant response rating, Crabgrass” value (crabgrass; [8]) was 10. For the same molecule, the “Plant response rating, Velvetleaf” value (velvetleaf; [1]) was 0, the “Plant response rating, Velvetleaf” value (velvetleaf; [2]) was 5 and the “Velvetleaf plant response rating” value (velvetleaf; [3]) was 5. For the same molecule, the “Velvetleaf plant response rating” value (velvetleaf; [5]) was 3, the “Velvetleaf plant response rating” value (velvetleaf; [6]) was 6 and the “Plant response rating, Velvetleaf” value (velvetleaf; [7]) was 6. For the same molecule, the “Plant response rating, Velvetleaf” value (velvetleaf; [8]) was 8, the “Plant response rating, Giant foxtail” value (giant foxtail; [1]) was 3 and the “Plant response rating, Giant foxtail” value (giant foxtail; [2]) was 8. The “Giant foxtail plant response rating” value (giant foxtail; [3]) was 9, the “Plant response rating, Giant foxtail” value (giant foxtail; [4]) was 9 and the “Giant foxtail plant response rating” value (giant foxtail; [5]) was 8. For the same molecule, the “Giant foxtail plant response rating” value (giant foxtail; [6]) was 10, the “Plant response rating, Giant foxtail” value (giant foxtail; [7]) was 10 and the “Plant response rating, Giant foxtail” value (giant foxtail; [8]) was 10. The “Plant response rating, Wild oats” value (wild oat; [1]) was 0, the “Plant response rating, Wild oats” value (wild oat; [2]) was 0 and the “Wild oats plant response rating” value (wild oat; [5]) was 0. For the same molecule, the “Wild oats plant response rating” value (wild oat; [6]) was 0, the “Plant response rating, Wild oats” value (wild oat; [7]) was 9 and the “Plant response rating, Wild oats” value (wild oat; [8]) was 9. For the same molecule, the “Plant response rating, Cocklebur” value (cocklebur; [1]) was 0, the “Plant response rating, Cocklebur” value (cocklebur; [2]) was 0 and the “Cocklebur plant response rating” value (cocklebur; [3]) was 0. The “Plant response rating, Cocklebur” value (cocklebur; [4]) was 2, the “Cocklebur plant response rating” value (cocklebur; [5]) was 0 and the “Cocklebur plant response rating” value (cocklebur; [6]) was 0. The “Plant response rating, Cocklebur” value (cocklebur; [7]) was 3, the “Plant response rating, Cocklebur” value (cocklebur; [8]) was 7 and the “Plant response rating, Corn” value (corn; [1]) was 3. The “Plant response rating, Corn” value (corn; [2]) was 3, the “Corn plant response rating” value (corn; [3]) was 4 and the “Plant response rating, Corn” value (corn; [4]) was 6. The “Corn plant response rating” value (corn; [5]) was 1, the “Corn plant response rating” value (corn; [6]) was 2 and the “Plant response rating, Corn” value (corn; [7]) was 6. The “Plant response rating, Corn” value (corn; [8]) was 8, the “Plant response rating, Rape” value (rape; [1]) was 0 and the “Plant response rating, Rape” value (rape; [2]) was 0. The “Rape plant response rating” value (rape; [3]) was 0, the “Plant response rating, Rape” value (rape; [4]) was 3 and the “Rape plant response rating” value (rape; [5]) was 0. The “Rape plant response rating” value (rape; [6]) was 0, the “Plant response rating, Rape” value (rape; [7]) was 4 and the “Plant response rating, Rape” value (rape; [8]) was 9.

From patent publication US6737383B1, “Herbicidal oxadiazolidines” (priority 1999, dated 2004)
